In experiment [1] the target is T1, CDK2 (Homo sapiens, UniProt P24941).
T1 construct: High-Throughput Measurement of Cellular Endogenous CDK2; endogenous in cells; host or cells: OVCAR3
Description: High-throughput HTRF measurement of cellular endogenous CDK2 level (degradation, DC50/Dmax) in OVCAR3 cells, 6 h. Type of experiment: cell-based. To be noted: 6 h compound treatment, HTRF total CDK2, read-out: DC50_OVCAR3_6h. The procedure:
High-Throughput Measurement of Cellular Endogenous CDK2
Effects of compounds on cellular CDK2 level were monitored by a high-throughput HTRF assay.
To determine half maximal degradation concentration (DC50) and maximum degradation level (Dmax) values of compounds, cellular CDK2 level was measured in 96-well format using HTRF total CDK2 cellular kit (Cat #64CDK2TPEG) from Cisbio.
On Day 1, OVCAR3 cells were seeded into 96-well tissue-culture treated plates at 20,000 cells/well in 200 μL and incubated overnight at 37° C. in CO2 atmosphere. On Day 2 cells were treated with compounds at concentration ranging from 0.03 to 1,000 nM using HP D300 digital dispenser. 6 hours after compound treatment, cell culture media was removed by flicking the plate and tapping the plate against clean paper towel. Immediately 30 μL 1× lysis buffer was supplemented from the kit and added to each well and the plate is incubated at room temperature on shaker for 30 min. After homogenization by pipetting up and down, 8 μL cell lysate from 96-well cell culture plate was transferred to 384-well small volume white detection plate. 2 μL premixed detection solution was added and the plate is covered with sealer. To prepare the detection solution, d2 conjugated-CDK2 antibody and Eu-cryptate conjugated CDK2 antibody were diluted into detection buffer following manufacturer's instruction. Detection plates were incubated overnight at room temperature and read on ClarioStar (BMG Labtech) in TR-FRET mode (665 nM and 620 nM). The TR-FRET ratio (665 nM/620 nM) was plotted against the compound concentration and normalized to DMSO controls (0% degradation) and lysis buffer controls (100% degradation). Half maximal degradation concentration (DC 50) […] were calculated with a four-parameter logistic fit using GraphPad Prism (version 8; La Jolla, CA).
In the table below, AA indicates a DC50 of greater than or equal to 0.5 nM but less than 1 nM; A indicates a DC50 of greater than or equal to 1 nM but less than or equal to 10 nM; B indicates a DC50 of greater than 10 nM but less than or equal to 100 nM; C indicates a DC50 of greater than 100 nM but less than or equal to 1 μM; and D indicates a DC50 of greater than 1 μM […] but less than or equal to 5 μM. NT means not tested.

Experiment [2] addresses T1, CDK2. Kind of experiment: Inhibition of CDK2: phospho-Rb (S807/811) HTRF measurement in OVCAR3 cells, 24 h. Type of experiment: cell-based. To be noted: 24 h compound treatment, read-out: pRB_OVCAR3_24h. An outline of the steps:
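OVCAR3 cells, seeded overnight, were exposed to compounds at 0.3 to 10,000 nM for 24 h, then lysed. Rb S807/811 phosphorylation read by HTRF (665/620 nm ratio) after 4 h detection at room temperature; data normalized to DMSO and IC50 from four-parameter logistic fit.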

Turning to `Cn1nc(N2CCC(=O)NC2=O)c2cc(F)c(C3CCN(Cc4cccc(S(=O)(=O)N5CCC(Nc6ncc(OC(F)F)cn6)CC5)c4)CC3)cc21` [Example 77, 1-(6-(1-(3-((4-((5-(difluoromethoxy)-pyrimidin-2-yl)amino)piperidin-1-yl)sulfonyl)benzyl)piperidin-4-yl)-5-fluoro-1-methyl-1H-indazol-3-yl)dihydropyrimidine-2,4(1H,3H)-dione], the DC50 in experiment [1] was in the range of 1 to 10 nM. In experiment [2], the IC50 lay in the range of 1 to 100 nM.

As to `Cn1c(=O)n(C2CCC(=O)NC2=O)c2cccc(C3CCN(Cc4cccc(S(=O)(=O)N5CCC(Nc6ncc(C(F)(F)F)cn6)CC5)c4)CC3)c21` (stereo not shown) [Example 83, 3-(3-methyl-2-oxo-4-(1-(3-((4-((5-(trifluoromethyl)pyrimidin-2-yl)amino)piperidin-1-yl)sulfonyl)benzyl)-piperidin-4-yl)-2,3-dihydro-1H-benzo[d]imidazol-1-yl)piperidine-2,6-dione], the DC50 in experiment [1] was 1 to 10 nM. The IC50 in experiment [2] lay within 1 to 100 nM.

For `Cn1nc(N2CCC(=O)NC2=O)c2ccc(C3CCN(CCCc4cccc(S(=O)(=O)N5CCC(Nc6ncc(OC(F)F)cn6)CC5)c4)CC3)cc21` [Example 86, 1-(6-(1-(3-(3-((4-((5-(difluoromethoxy)-pyrimidin-2-yl)amino)piperidin-1-yl)sulfonyl)phenyl)propyl)piperidin-4-yl)-1-methyl-1H-indazol-3-yl)dihydropyrimidine-2,4(1H,3H)-dione], the DC50 in experiment [1] lay within 10 to 100 nM. Moreover, the IC50 in experiment [2] is 1 to 100 nM.

Consider `Cn1nc(N2CCC(=O)NC2=O)c2ccc(C3CCN(CCCc4cccc(S(=O)(=O)N5CCC(Nc6ncc(C(F)(F)F)cn6)CC5)c4)CC3)cc21` [Example 87, 1-(1-methyl-6-(1-(3-(3-((4-((5-(trifluoro-methyl)pyrimidin-2-yl)amino)piperidin-1-yl)sulfonyl)phenyl)propyl)piperidin-4-yl)-1H-indazol-3-yl)dihydropyrimidine-2,4(1H,3H)-dione], for which, in experiment [1], the DC50 fell in the range of 1 to 10 nM. Besides, the IC50 in experiment [2] lay within 1 to 100 nM.

On to `Cn1nc(N2CCC(=O)NC2=O)c2ccc(C3CCN(CC4CCN(c5cccc(S(=O)(=O)N6CCC(Nc7ncc(C(F)(F)F)cn7)CC6)c5)CC4)CC3)c(Cl)c21` [Example 89, 1-(7-chloro-1-methyl-6-(1-((1-(3-((4-((5-(trifluoromethyl)pyrimidin-2-yl)amino)-piperidin-1-yl)sulfonyl)phenyl)piperidin-4-yl)methyl)piperidin-4-yl)-1H-indazol-3-yl)dihydropyrimidine-2,4(1H,3H)-dione], for which, in experiment [1], the DC50 was 10 to 100 nM. For the same compound, in experiment [2], the IC50 lay within 1 to 100 nM.

As for `O=C1CCN(c2nn(CC(F)(F)F)c3cc(C4CCN(CC5CCN(c6cccc(S(=O)(=O)N7CCC(Nc8ncc(C(F)(F)F)cn8)CC7)c6)CC5)CC4)ccc23)C(=O)N1` [Example 91, 1-(1-(2,2,2-trifluoroethyl)-6-(1-((1-(3-((4-((5-(trifluoromethyl)pyrimidin-2-yl)amino)piperidin-1-yl)sulfonyl)phenyl)-piperidin-4-yl)methyl)piperidin-4-yl)-1H-indazol-3-yl)dihydropyrimidine-2,4(1H,3H)-dione], in experiment [1], the DC50 was 10 to 100 nM. Moreover, the IC50 in experiment [2] fell in the range of 100 to 500 nM.

Take `O=C1CCC(N2Cc3cc(N4CCC(N5CC(Oc6cccc(S(=O)(=O)N7CCC(Nc8ncc(C(F)(F)F)cn8)CC7)c6)C5)CC4)ccc3C2=O)C(=O)N1` (stereo not shown) [Example 92, 3-(1-oxo-5-(4-(3-(3-((4-((5-(trifluoro-methyl)pyrimidin-2-yl)amino)piperidin-1-yl)sulfonyl)phenoxy)azetidin-1-yl)piperidin-1-yl)isoindolin-2-yl)piperidine-2,6-dione]: the DC50 in experiment [1] lay in the range of 1 to 10 nM. Besides, the IC50 in experiment [2] is 100 to 500 nM.

`Cn1nc(N2CCC(=O)NC2=O)c2ccc(C3CCN(Cc4cccc(S(=O)(=O)N5CCC(Nc6ncc(OC(F)F)cn6)CC5)c4)CC3)c(F)c21` [Example 93, 1-(6-(1-(3-((4-((5-(difluoromethoxy)-pyrimidin-2-yl)amino)piperidin-1-yl)sulfonyl)benzyl)piperidin-4-yl)-7-fluoro-1-methyl-1H-indazol-3-yl)dihydropyrimidine-2,4(1H,3H)-dione]: the DC50 in experiment [1] was 1 to 10 nM. Further, the IC50 in experiment [2] was in the range of 1 to 100 nM.

`Cn1nc(N2CCC(=O)NC2=O)c2ccc(C3CCN(CC4CCN(c5cccc(S(=O)(=O)N6CCC(Nc7ncc(C(F)(F)F)cn7)CC6)c5)CC4)CC3)c(F)c21` [Example 94, 1-(7-fluoro-1-methyl-6-(1-((1-(3-((4-((5-(trifluoromethyl)pyrimidin-2-yl)amino)-piperidin-1-yl)sulfonyl)phenyl)piperidin-4-yl)methyl)piperidin-4-yl)-1H-indazol-3-yl)dihydropyrimidine-2,4(1H,3H)-dione]: the DC50 in experiment [1] lay within 10 to 100 nM. The IC50 in experiment [2] was 1 to 100 nM.

With `Cn1nc(N2CCC(=O)NC2=O)c2ccc(C3CCN(CC4CCN(c5cccc(S(=O)(=O)N6CCC(Nc7ncc(Cl)cn7)CC6)c5)CC4)CC3)c(F)c21` [Example 95, 1-(6-(1-((1-(3-((4-((5-chloropyrimidin-2-yl)amino)piperidin-1-yl)sulfonyl)phenyl)-piperidin-4-yl)methyl)piperidin-4-yl)-7-fluoro-1-methyl-1H-indazol-3-yl)dihydropyrimidine-2,4(1H,3H)-dione], in experiment [1], the DC50 fell in the range of 1 to 10 nM. For the same compound, in experiment [2], the IC50 fell in the range of 1 to 100 nM.

Consider `Cn1nc(N2CCC(=O)NC2=O)c2cc(F)c(C3CCN(CC4CCN(c5cccc(S(=O)(=O)N6CCC(Nc7ncc(Cl)cn7)CC6)c5)CC4)CC3)cc21` [Example 99, 1-(6-(1-((1-(3-((4-((5-chloropyrimidin-2-yl)amino)piperidin-1-yl)sulfonyl)phenyl)-piperidin-4-yl)methyl)piperidin-4-yl)-5-fluoro-1-methyl-1H-indazol-3-yl)dihydropyrimidine-2,4(1H,3H)-dione], for which the DC50 in experiment [1] lay within 10 to 100 nM. Besides, in experiment [2], the IC50 is 1 to 100 nM.

As to `Cn1nc(N2CCC(=O)NC2=O)c2cc(F)c(C3CCN(CC4CCN(c5cccc(S(=O)(=O)N6CCC(Nc7ncc(C(F)(F)F)cn7)CC6)c5)CC4)CC3)cc21` [Example 100, 1-(5-fluoro-1-methyl-6-(1-((1-(3-((4-((5-(trifluoromethyl)pyrimidin-2-yl)amino)-piperidin-1-yl)sulfonyl)phenyl)piperidin-4-yl)methyl)piperidin-4-yl)-1H-indazol-3-yl)dihydropyrimidine-2,4(1H,3H)-dione], the DC50 in experiment [1] lay within 10 to 100 nM. In addition, the IC50 in experiment [2] was in the range of 1 to 100 nM.

Turning to `O=C1CCC(N2Cc3cc(N4CCC(N5CC(Oc6cccc(S(=O)(=O)N7CCC(Nc8ncc(Cl)cn8)CC7)c6)C5)CC4)ccc3C2=O)C(=O)N1` (stereo not shown) [Example 105, 3-(5-(4-(3-(3-((4-((5-chloropyrimidin-2-yl)amino)piperidin-1-yl)sulfonyl)phenoxy)-azetidin-1-yl)piperidin-1-yl)-1-oxoisoindolin-2-yl)piperidine-2,6-dione], in experiment [1], the DC50 lay within 10 to 100 nM. Also, the IC50 in experiment [2] lay in the range of 100 to 500 nM.

Take `Cn1c(=O)n(C2CCC(=O)NC2=O)c2cccc(C3CCN(CC4CCN(c5cccc(S(=O)(=O)N6CCC(Nc7ncc(C(F)(F)F)cn7)CC6)c5)CC4)CC3)c21` (stereo not shown) [Example 107, 3-(3-methyl-2-oxo-4-(1-((1-(3-((4-((5-(trifluoromethyl)pyrimidin-2-yl)amino)-piperidin-1-yl)sulfonyl)phenyl)piperidin-4-yl)methyl)piperidin-4-yl)-2,3-dihydro-1H-benzo[d]imidazol-1-yl)piperidine-2,6-dione]: the DC50 in experiment [1] was 1 to 10 nM. Besides, the IC50 in experiment [2] lay in the range of 1 to 100 nM.

Values taken from patent publication US20260167623A1 (NIKANG THERAPEUTICS, INC., priority 2022, published 2026).
